Values joined by “and” are separate entries in the source; they are usually repeats but may differ in a detail not shown here. Equal entries are not always repeated.
Experiments:
Homo sapiens = experiment: Mean steady-state pharmacokinetic parammeters for Testosterone evaluated on day 30 following multiple topical administration of Testosterone gel to adult male subjetcs with testosterone levels <= 300ng/dL.; assay type: ADME, organism-based; parameters: dose 100 mg, dose 50 mg, route topical; settings: in vivo, topical_or_ocular, dosed compound id 32, dosed compound name TESTOSTERONE, gender male, regimen Once daily, tissue Serum; for Cavg: route topical
[1] = Evaluation of excretion and half-life for Testosterone following intramusculary administration of testosterone doses.; assay type: ADME, organism-based; settings: human, in vivo, im; dosed compound id 32, dosed compound name TESTOSTERONE, gender male, tissue Plasma

In the case of `C[C@]12CC[C@H]3[C@@H](CCC4=CC(=O)CC[C@@]43C)[C@@H]1CC[C@@H]2O` [TESTOSTERONE], the Cavg (Homo sapiens; dose 50 mg) is reported as 365 ng/dL, the Cavg (Homo sapiens; dose 100 mg) is reported as 612 ng/dL and the Cmax (Homo sapiens) is reported as 538 ng/dL and 897 ng/dL. It also gave a half-life [1] of 10 to 100 min.
